Experimental data published in patent US6635629B2, “3-nitrogen-6,7-dioxygen steroids and uses related thereto” (Inflazyme Pharmaceuticals Ltd., priority 2000, dated 2003).
Several values for one entry are separate records, joined by “and”; a condition that tells them apart may be missing. Identical values can stand only once.

How the values were obtained:
[1] = Metabolic stability in human liver S9 fractions; format: in vitro ADME; settings: 10 μM
Description: The therapeutic effectiveness of a test compound can be often directly related to its metabolic stability in vivo. The majority of known, marketed drugs are metabolized by a group of enzymes known as P450 enzymes. The S9 fraction of human liver contains all the P450 enzymes and also cytoplasmic enzymes that may be involved in the metabolism of new chemical entities. Metabolism in vitro using human S9 fractions is a standard assay to evaluate relative metabolic stability of new compounds. The test is performed as follows.
Reagents are thawed on ice and combined to make up a Master Mix as follows: Potassium phosphate (100 mM, pH 7), G6P (0.25 mM), G6PDH (2 U/ml), NADPH (1 mM), UDP (0.25 mM), APPS (0.25 mM), and S9 fraction (2 mg/ml). A volume of 498 μl of the Master mix is dispensed into each microcentrifuge tube. A volume of 2 μl of 2.5 mM test compound (final concentration of 10 μM) is dispensed into the center of the lid of the appropriate tube, and the lids gently closed to prevent mixing. Synchronous combination of test compound and master mix is achieved by simultaneous ten times inversion of the tubes, which are then incubated at 37° C. and shaken at 150 rpm for the appropriate incubation times. While incubation is in progress, all 0 time samples are mixed individually by three times inversion followed by the immediate addition of 500 μl ice cold acetonitrile with three times inversion to stop the reaction. Immediately after each 15 minutes and 30 minutes incubation is complete, ice cold acetonitrile is added to each tube and the tubes mixed by three times inversion. All sample tubes are incubated at −80° C. for a minimum of 15 minutes, thawed and remixed by inversion. Aliquots of 650 μl are transferred to Chromatographic Specialties micro-spin filter system tubes (0.2 μm nylon membrane, C618505) and centrifuged at 13,000 rpm for 48 seconds. The sample filtrates are stored at −80° C.
Sample filtrates are analyzed on LCMS, and percent remaining after 15 and 30 minute incubation is calculated relative to the 0 minute incubation.
The metabolic stability of various compounds are summarized in Table 10 as the percent remaining after 15 or 30 minutes incubation with human liver S9 fractions.

Jurkat clone E6.1 cells = assay: Antigen-induced (anti-CD3 mAb) calcium flux in Jurkat clone E6.1 cells; format: cell-based; settings: 20 μM; anti-CD3 mAb 4 μg/mL; Fura 2AM
Description: Elevation of cytoplasmic calcium concentration is a common and crucial event which follows the activation of many types of cell surface receptors. Increases in intracellular calcium that occur following agonist activation of inositol lipid hydrolysis are the results of calcium release from the endoplasmic reticulum and the influx of calcium through the plasma membrane. Increases in cytosolic calcium concentration are involved in many important cellular responses in the inflammatory process including adhesion, motility, gene expression, proliferation, and degranulation. Changes in intracellular calcium centrations can affect both short and long term cellular responses. An assay method to evaluate a test compound's impact on calcium flux is provided as follows.
The resulting supernatants are discarded and each pellet is washed in 10 mL HBSS. Cell suspensions are accumulated and centrifuged for 5 minutes at 900 RPM to form a cell pellet. The resulting supernatant is discarded and the pellet is resuspended in HBSS at 1×10^7 cells/mL. The cell suspension is transferred to a 20 mm petri dish and incubated at 37° C., 5% CO2 for 20 minutes.
One volume of Fura 2AM is mixed to one volume of detergent Pluronic F127. Cells are labeled with 4 μL of probe solution to each mL of cell suspension. The petri dish is wrapped in aluminum foil to protect from light and placed on a plate shaker for 30 minutes at room temperature.
The following steps are done in the laminar flow hood with the fluorescent lights turned off. The petri dish is removed from the shaker and the labeled cell suspension is transferred to a 15 mL conical tube and washed twice with HBSS as above. The cell pellet is resuspended in 12 mL HBSS and left wrapped in foil for 30 minutes at room temperature. The labeled cell suspension is aliquoted (100 μL/well) into a Dynex 96 well white opaque tissue culture plate. […] Selected compounds were tested for dose related activity. Test samples and activator (anti—CD3 mAb at final concentration of 4 μg/mL, PharMingen) are added manually (50 μL), such that the minimum time to acquire the first data point after stimulation is approximately 30 seconds. The calcium influx response to anti-CD3 mAb is measured as an “end point” assay. The entire plate is read in 100 seconds using a kinetic of 1 second per well.
The plate is read before the addition of anti-CD3 to monitor non-specific effect of samples/drugs. Fluorescence emission is measured at 510 nm with excitation alternating between 340 and 380 every second using an excitation/emission filter pair. Data from these dual wavelengths are represented as a ratio of 2 excitations wavelengths. This ratio is independent of intracellular dye and cell concentrations, enabling real comparison between experiments.

[2] = tested on: rat mast cell line (RBL-2H3); assay: Antigen-induced release of hexosaminidase from a rat mast cell line (RBL-2H3); format: cell-based; settings: inhibition of DNP-HSA antigen-induced hexosaminidase release; tested at 0.3, 3, 10 and 30 μM; read-out: Hex IC50
Protocol: The anti-allergic effects of a compound of the present invention was evaluated by measuring its effect on antigen-induced secretion of hexosaminidase from a passively sensitized rat mast cell line. The ability of a test compound to inhibit the release of mast cell granule contents, e.g., histamine and hexosaminidase, is indicative of the anti-allergy and/or anti-asthma activity of the compound. Hexosaminidase is released from the mast cell granule along with histamine and other mediators during antigen challenge. The test is performed as follows.
RBL-2H3 cells are grown in culture and passively sensitized for 1 hour at 37° C. to dinitrophenol (DNP) using anti-human-DNP (IgE). Cells are incubated with test compound for 30 minutes at 37° C. and stimulated with 0.5 μg/ml DNP-HSA (antigen) for 30 minutes. Aliquots of the supernatant are removed and used to measure the amount of hexosaminidase released during challenge with the antigen. […] The effect of each test compound is determined as a percentage of the antigen-induced response (minus background release) obtained in the presence of DMSO alone. These values are used to determine the degrees of inhibition of antigen-induced hexosaminidase release from the cells.

[3] = tested on: sensitized Brown Norway rats; assay: Ovalbumin-induced accumulation of inflammatory cells in lung lavage fluid of sensitized Brown Norway rats; format: in vivo, rat; settings: p.o.
Protocol: The ability of a compound to inhibit the allergen-induced accumulation of inflammatory cells such as eosinophils and neutrophils in the lavage fluid obtained from sensitized animals is indicative of that compound's anti-asthma activity. […] The test is conducted as follows.
Male Brown Norway rats are sensitized to ovalbumin by single intraperitoneal injection of 1 mg ovalbumin adsorbed to 100 mg A(OH)3 (alum) in 1 ml sterile saline (saline control rats receive only sterile saline) on day 1, and allowed to sensitize until day 21. […] Rats are challenged with 0.5% ovalbumin in saline generated using a Devillbis nebulizer for 60 min on day 21.
Forty-eight hrs after challenge, animals are sacrificed with an overdose of intraperitoneally-delivered sodium pentobarbitol and the lungs are lavaged with cold 2×7 ml phosphate buffered saline. The recovered lavage fluid is placed on ice. The bronchoalveolar lavage fluid is centrifuged and the supernatant removed. The pellet is resuspended in phosphate buffered saline at 4° C. Cytospins are prepared and stained for differentiation and enumeration of cell types.
Test compound was administered in 300 μl corn oil (Tables 7 and 8) or water (Table 9), which were used as vehicles. Control animals received 300 μl corn oil or water alone, i.e., no drug. […] A negative value in Table 7, 8, or 9 indicates an exacerbation of the effect over the control animal.

[4] = 5 mg/kg/day for 4 days, corn oil vehicle, relative to control animals
[5] = 1 mg/kg/day for 4 days, corn oil vehicle, relative to control animals
[6] = 37° C., 15 min incubation, relative to 0 minute incubation
[7] = 37° C., 30 min incubation, relative to 0 minute incubation
[8] = 0.1 mg/kg, 4 days qd, water vehicle
[9] = 0.3 mg/kg, 4 days qd, water vehicle
[10] = 1 mg/kg, 4 days qd, water vehicle

Row | SMILES | % remaining after 15 min ([1]; human, s9, 15 min, pH 7) [%] | % remaining after 30 min ([1]; human, s9, 30 min, pH 7) [%] | Calcium (% inhibition at 20 μM) (Jurkat clone E6.1 cells) [%] | IC50 [2] [µM] | % inhibition of eosinophils [3, 5] [%] | % inhibition of lymphocytes [3, 5] [%] | % inhibition of neutrophils [3, 5] [%] | % remaining after 15 min [1, 6] | % remaining after 30 min [1, 7] | further results
1 | CC=C1CCC2C3C(CC[C@]12C)[C@@]1(C)CCC(N)CC1[C@@H](O)[C@@H]3O (stereo partly shown) [Compound 49] | 93 ± 6 | 85 ± 8 | 26.8 | 11 | – | – | – | – | – | % inhibition of eosinophils [3, 4]: 52%; % inhibition of lymphocytes [3, 4]: 73%; % inhibition of neutrophils [3, 4]: 36%
2 | CC(F)=C1CCC2C3C(CC[C@]12C)[C@@]1(C)CCC(N)CC1[C@@H](O)[C@@H]3O (stereo partly shown) [Compound 64] | 104 ± 4 | 88 ± 5 | – | – | – | – | – | – | – | % inhibition of eosinophils [3, 4]: 62%; % inhibition of lymphocytes [3, 4]: 81%; % inhibition of neutrophils [3, 4]: 70%
3 | COC(=O)C=C1CCC2C3C(CC[C@]12C)[C@@]1(C)CCC(N)CC1[C@@H](O)[C@@H]3O (stereo partly shown) [Compound 69] | 73 ± 24 | 63 ± 6 | – | – | – | – | – | – | – | –
4 | C=C1CCC2C3C(CC[C@]12C)[C@@]1(C)CCC(N)CC1[C@@H](OC)[C@@H]3OC (stereo partly shown) [Compound 79] | 67 ± 6 | 61 ± 14 | 9.1 | 18.4 | – | – | – | – | – | –
5 | CCC1CCC2C3C(CC[C@]12C)[C@@]1(C)CCC(N)CC1[C@@H](O)[C@@H]3O (stereo partly shown) [Compound 96] | 92 ± 19 | 94 ± 21 | – | – | – | – | – | – | – | % inhibition of eosinophils [3, 4]: −9%; % inhibition of lymphocytes [3, 4]: 19%; % inhibition of neutrophils [3, 4]: 40%
6 | CCC1CCC2C3C(CC[C@]12C)[C@@]1(C)CCC(N)CC1[C@@H](O)[C@@H]3O (stereo partly shown) [Compound 97] | 94 ± 10 | 89 ± 12 | 43.0 | 9.3 | – | – | – | – | – | % inhibition of eosinophils [3, 4]: 40%; % inhibition of lymphocytes [3, 4]: 56%; % inhibition of neutrophils [3, 4]: 52%
7 | C=C1CCC2C3C(O)C(O)C4CC(NCc5cccnc5)CCC4(C)C3CCC12C.Cl.Cl (stereo not shown) [Compound 107] | – | – | 11.6 | 17.2 | −122 | −28 | 23 | – | – | –
8 | C=C1CCC2C3C(CC[C@]12C)[C@@]1(C)CC[C@@H](NC(=O)Nc2ccccc2)CC1[C@@H](O)[C@@H]3O (stereo partly shown) [Compound 137] | 93 ± 31 | 71 ± 17 | – | – | – | – | – | – | – | –
9 | C=C1CCC2C3C(CC[C@]12C)[C@@]1(C)CC[C@@H](NC(=O)NCCC)CC1[C@@H](O)[C@@H]3O (stereo partly shown) [Compound 138] | – | – | 9.0 | 15 | −52 | 33 | 35 | – | – | –
10 | CC1(C)CCC2=C1CCC1C2[C@@H](O)[C@H](O)C2C[C@@H](N)CC[C@]12C (stereo partly shown) [Compound 139] | – | – | 26.3 | 10.3 | – | – | – | 100% | 100% | –
11 | CC1(C)CCC2=C1CCC1C2C(O)C(O)C2CC(NCc3ccc(F)c(F)c3)CCC21C.Cl (stereo not shown) [Compound 141] | – | – | 36.3 | 9.4 | – | – | – | 100 ± 9% | 26 ± 4% | –
12 | COc1ccc(CNC2CCC3(C)C(C2)C(O)C(O)C2C4=C(CCC23)C(C)(C)CC4)cc1OC.Cl (stereo not shown) [Compound 142] | – | – | 13.8 | 15.9 | −131 | −42 | −1 | 80 ± 11% | 55 ± 2% | –
13 | CCC1(C)CCC2=C1CCC1C2C(O)C(O)C2CC(N)CCC21C.Cl (stereo not shown) [Compound 143] | – | – | 22.6 | 8.6 | – | – | – | 100% and 100 ± 3% | 100% and 99 ± 10% | % inhibition of eosinophils [3, 8]: 28%; % inhibition of lymphocytes [3, 8]: −43%; % inhibition of neutrophils [3, 8]: 57%; % inhibition of eosinophils [3, 9]: 29%; % inhibition of lymphocytes [3, 9]: −37%; % inhibition of neutrophils [3, 9]: 25%; % inhibition of eosinophils [3, 10]: 48%; % inhibition of lymphocytes [3, 10]: −22%; % inhibition of neutrophils [3, 10]: 64%
14 | CCC1(C)CCC2=C1CCC1C2C(O)C(O)C2CC(NCc3ccccc3)CCC21C.Cl (stereo not shown) [Compound 146] | – | – | 41.7 | 9 | 8 | −27 | 24 | 82 ± 6% | 63 ± 9% | –
15 | CCC1(C)CCC2=C1CCC1C2C(O)C(O)C2CC(NCc3ccccc3)CCC21C.Cl (stereo not shown) [Compound 147] | – | – | 36.3 | 18.1 | 40 | 36 | 58 | – | – | –
